# Measurements: patent US11180484B2, “Pyrazole derivatives as plasma kallikrein inhibitors” (KALVISTA PHARMACEUTICALS LIMITED, priority 2016, dated 2021)
# Legend:
# [1] = Intrinsic clearance in rat liver microsomes; format: in vitro ADME; settings: rat liver microsomes 0.5 mg/mL, 5 μM test compound, 37° C.; read-out: rat liver microsome (Clint μL/min/mg protein)
# Protocol: (§1) Rat or human liver microsomes (0.5 mg/mL; Corning) were incubated with 5 μM test compound at 37° C. on a shaking platform (150 rpm). Samples were taken at 0, 6, 12, 18, 24 and 60 min and test compound concentrations were determined by LCMS against a calibration curve.
# [2] = In vitro permeability, Caco-2 model for oral absorption; format: in vitro ADME; settings: human, apical to basolateral, 50 μM test compound, 37° C.
# Protocol: In vitro permeability was determined using the Caco-2 model for oral absorption. The methodology was adapted from standard published methods (Wang Z, Hop C. E., Leung K. H. and Pang J. (2000) J Mass Spectrom 35(1); 71-76). The Caco-2 monolayers were established in a Biocoat™ HTS fibrillar collagen 24 well multiwell insert system (1.0 μm, PET membrane, Corning 354803) in which 200,000 cells were seeded into each insert and maintained over 3 days before being utilised in the permeability assay. For the assay, 50 μM test compound is added to the apical side of the inserts and incubated for 1 hour at 37° C. on a shaking platform (120 rpm). Apical to basolateral transport was determined by measuring the test article in both compartments by LCMS following the 1 hour incubation. The integrity of the Caco-2 monolayers was confirmed by two methods, (i) comparison of pre- and post-experiment transepithelial electrical resistance (TEER) and, (ii) assessment of Lucifer Yellow flux.
# Human FXIa = Human FXIa (Homo sapiens (Human), UniProt P03951); assay: Determination of the % inhibition / IC50 for FXIa; format: biochemical; settings: for IC50: 25° C., substrate Z-Gly-Pro-Arg-AFC
# Protocol: FXIa inhibitory activity in vitro was determined using standard published methods (see e.g. Johansen et al., Int. J. Tiss. Reac. 1986, 8, 185; Shori et al., Biochem. Pharmacol., 1992, 43, 1209; Sturzebecher et al., Biol. Chem. Hoppe-Seyler, 1992, 373, 1025). […]
# [3] = Intrinsic clearance in human liver microsomes; format: in vitro ADME; settings: human liver microsomes 0.5 mg/mL, 5 μM test compound, 37° C.; read-out: Human liver microsome (Clint μL/min/mg protein)
# Protocol: as §1
# Human Factor XIIa = Human Factor XIIa (Homo sapiens (Human), UniProt P00748); assay: Factor XIIa inhibitory activity in vitro; format: biochemical; settings: 25° C., substrate H-DPro-Phe-Arg-AFC; read-out: IC50 (human FXIIa)
# Protocol: (§2) Human Factor XIIa (Enzyme Research Laboratories) was incubated at 25° C. with the fluorogenic substrate H-DPro-Phe-Arg-AFC and various concentrations of the test compound. Residual enzyme activity (initial rate of reaction) was determined by measuring the change in […] at 410 nm and the IC50 value for the test compound was determined.
# Human KLK1 = Human KLK1 (Homo sapiens (Human), UniProt P06870); assay: Determination of the IC50 for KLK1; format: biochemical; settings: 25° C., substrate H-DVal-Leu-Arg-AFC
# Protocol: as §2, with “KLK1 (Callbiochem)” for “Factor XIIa (Enzyme Research Laboratories)”, “H-DVal-Leu-Arg-AFC” for “H-DPro-Phe-Arg-AFC”
# Human plasma kallikrein = Human plasma kallikrein (Homo sapiens (Human), UniProt P03952); assay: Determination of the IC50 for plasma kallikrein; format: biochemical; settings: 25° C., substrate H-DPro-Phe-Arg-AFC; read-out: IC50 (human PKal)
# Protocol: as §2, with “plasma kallikrein (Protogen)” for “Factor XIIa (Enzyme Research Laboratories)”
# Sequence of Human KLK1 (P06870 25-262): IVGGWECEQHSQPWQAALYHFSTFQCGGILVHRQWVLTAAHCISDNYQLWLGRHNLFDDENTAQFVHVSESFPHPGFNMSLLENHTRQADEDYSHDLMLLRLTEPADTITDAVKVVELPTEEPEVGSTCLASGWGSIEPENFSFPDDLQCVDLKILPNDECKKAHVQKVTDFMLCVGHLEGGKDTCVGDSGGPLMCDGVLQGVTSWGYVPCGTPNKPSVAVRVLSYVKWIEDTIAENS
# Sequence of Human Factor XIIa (P00748 373-615): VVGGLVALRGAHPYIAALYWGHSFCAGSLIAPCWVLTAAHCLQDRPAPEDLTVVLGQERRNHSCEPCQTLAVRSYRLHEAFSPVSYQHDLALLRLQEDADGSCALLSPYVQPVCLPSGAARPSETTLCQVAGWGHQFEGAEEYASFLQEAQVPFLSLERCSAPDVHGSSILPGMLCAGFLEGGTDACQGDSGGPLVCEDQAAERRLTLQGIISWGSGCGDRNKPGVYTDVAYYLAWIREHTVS
# Sequence of Human plasma kallikrein (P03952 391-638): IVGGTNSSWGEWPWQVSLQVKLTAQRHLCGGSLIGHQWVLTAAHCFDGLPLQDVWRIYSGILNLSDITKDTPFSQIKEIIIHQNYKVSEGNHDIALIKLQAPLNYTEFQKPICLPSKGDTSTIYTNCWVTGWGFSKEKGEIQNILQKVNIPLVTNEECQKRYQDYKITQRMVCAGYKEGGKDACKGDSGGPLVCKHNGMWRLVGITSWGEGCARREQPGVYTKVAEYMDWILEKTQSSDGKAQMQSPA
# Sequence of Human plasma kallikrein (P03952 20-390): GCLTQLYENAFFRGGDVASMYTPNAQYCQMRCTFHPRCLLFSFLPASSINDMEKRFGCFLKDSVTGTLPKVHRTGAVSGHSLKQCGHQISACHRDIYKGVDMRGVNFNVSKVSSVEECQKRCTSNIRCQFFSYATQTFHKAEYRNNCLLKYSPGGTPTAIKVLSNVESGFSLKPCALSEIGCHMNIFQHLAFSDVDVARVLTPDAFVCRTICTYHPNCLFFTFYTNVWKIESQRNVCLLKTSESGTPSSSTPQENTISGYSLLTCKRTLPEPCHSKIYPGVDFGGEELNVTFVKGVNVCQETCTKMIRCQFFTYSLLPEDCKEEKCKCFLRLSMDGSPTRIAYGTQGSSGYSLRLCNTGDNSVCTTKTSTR
# Sequence of Human FXIa (P03951 388-625): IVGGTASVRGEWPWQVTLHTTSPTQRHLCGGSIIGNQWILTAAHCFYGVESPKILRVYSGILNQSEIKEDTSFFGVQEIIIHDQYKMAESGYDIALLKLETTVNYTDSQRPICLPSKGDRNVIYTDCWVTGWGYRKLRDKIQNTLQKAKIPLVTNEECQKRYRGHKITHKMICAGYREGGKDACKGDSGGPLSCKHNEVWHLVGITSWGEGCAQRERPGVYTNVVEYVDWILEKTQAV
# Sequence of Human FXIa (P03951 19-387): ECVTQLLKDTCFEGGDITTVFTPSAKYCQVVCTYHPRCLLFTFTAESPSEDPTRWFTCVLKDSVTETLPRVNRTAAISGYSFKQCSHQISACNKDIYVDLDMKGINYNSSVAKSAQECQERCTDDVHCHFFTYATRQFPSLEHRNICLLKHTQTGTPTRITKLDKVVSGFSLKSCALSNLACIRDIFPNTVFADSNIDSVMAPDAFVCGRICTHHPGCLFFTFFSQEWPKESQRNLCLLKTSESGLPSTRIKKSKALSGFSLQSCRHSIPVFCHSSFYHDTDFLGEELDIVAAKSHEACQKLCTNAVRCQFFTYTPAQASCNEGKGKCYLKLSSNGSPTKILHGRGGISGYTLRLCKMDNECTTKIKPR
SMILES,microsomal CLint at 5 μM [1] [µL/min/mg],"Papp at 1 h, 50 μM [2] [×10⁻⁶ cm/s]",IC50 (Human FXIa) [µM],microsomal CLint at 5 μM [3] [µL/min/mg],IC50 (Human Factor XIIa) [µM],IC50 (Human KLK1) [µM],IC50 (Human plasma kallikrein) [µM],"inhibition at 40 µM (Human FXIa; 40 μM test compound, read-out: % Inhibition @ 40 μM (human FXIa)) [%]"
"COCc1nn(Cc2ccc(Cn3ccccc3=O)cc2)cc1C(=O)NCc1c(C(N)=O)ccc(OC)c1F [Example 42, N-[(6-carbamoyl-2-fluoro-3-methoxyphenyl)methyl]-3-(methoxymethyl)-1-({4-[(2-oxopyridin-1-yl)methyl]phenyl}methyl)pyrazole-4-carboxamide]",11,4,> 40,8,> 4,> 4,0.0036,–
"COCc1nn(Cc2ccc(Cn3ccccc3=O)cc2)cc1C(=O)NCc1cc(F)ccc1-n1cnnn1 [Example 49, N-{[5-fluoro-2-(1,2,3,4-tetrazol-1-yl)phenyl]methyl}-3-(methoxymethyl)-1-({4-[(2-oxopyridin-1-yl)methyl]phenyl}methyl)pyrazole-4-carboxamide]",36,6,> 40,18,> 4,> 4,0.0159,–
"COCc1nn(Cc2ccc(Cn3ccccc3=O)cn2)cc1C(=O)NCc1c(C#N)ccc(OC)c1F [Example 51, N-[(6-cyano-2-fluoro-3-methoxyphenyl)methyl]-3-(methoxymethyl)-1-({5-[(2-oxopyridin-1-yl)methyl]pyridin-2-yl}methyl)pyrazole-4-carboxamide]",25,3,> 40,30,> 4,> 4,0.0213,–
"COCc1nn(Cc2ccc(Cn3ccccc3=O)nc2)cc1C(=O)NCc1c(C#N)ccc(OC)c1F [Example 52, N-[(6-cyano-2-fluoro-3-methoxyphenyl)methyl]-3-(methoxymethyl)-1-({6-[(2-oxopyridin-1-yl)methyl]pyridin-3-yl}methyl)pyrazole-4-carboxamide]",8,5,> 40,16,> 4,> 4,0.0064,–
"COCc1nn(Cc2ccc(CN3CCCCC3=O)cc2)cc1C(=O)NCc1c(C#N)ccc(OC)c1F [Example 57, N-[(6-cyano-2-fluoro-3-methoxyphenyl)methyl]-3-(methoxymethyl)-1-({4-[(2-oxopiperidin-1-yl)methyl]phenyl}methyl)pyrazole-4-carboxamide]",–,–,> 40,–,> 40,> 40,0.0279,–
"COCc1nn(Cc2ccc(Cn3ccccc3=O)cc2)cc1C(=O)NCc1c(Cl)cccc1-n1cnnn1 [Example 73, N-{[2-chloro-6-(1,2,3,4-tetrazol-1-yl)phenyl]methyl}-3-(methoxymethyl)-1-({4-[(2-oxopyridin-1-yl)methyl]phenyl}methyl)pyrazole-4-carboxamide]",–,4,> 40,–,> 4,> 4,0.0231,–
"COCc1nn(Cc2ccc(Cn3cccn3)cc2)cc1C(=O)NCc1cccc(Cl)c1 [Reference Example I, reference compound]",153,15,> 40,77,> 40,> 40,2.02,–
"COCc1nn(Cc2ccc(Cn3cccn3)cc2)cc1C(=O)NCc1cccc(Cl)c1F [Reference Example J, reference compound]",187,12,> 40,110,> 40,> 40,2.87,–

# Now from value to molecule:
microsomal CLint at 5 μM [1] [µL/min/mg],"Papp at 1 h, 50 μM [2] [×10⁻⁶ cm/s]",IC50 (Human FXIa) [µM],microsomal CLint at 5 μM [3] [µL/min/mg],IC50 (Human Factor XIIa) [µM],IC50 (Human KLK1) [µM],IC50 (Human plasma kallikrein) [µM],"inhibition at 40 µM (Human FXIa; 40 μM test compound, read-out: % Inhibition @ 40 μM (human FXIa)) [%]",SMILES
52,28,> 40,33,> 40,> 40,0.0261,–,"COCc1nn(Cc2ccc(Cn3cc(C)cn3)cc2)cc1C(=O)NCc1nccc(OC)c1F [Example 1, N-[(3-fluoro-4-methoxypyridin-2-yl)methyl]-3-(methoxymethyl)-1-({4-[(4-methylpyrazol-1-yl)methyl]phenyl}methyl)pyrazole-4-carboxamide]"
8,10,> 40,22,> 40,> 40,0.018,–,"COc1ccnc(CNC(=O)c2cn(Cc3ccc(Cn4ccccc4=O)cc3)nc2N(C)C)c1F [Example 7, 3-(dimethylamino)-N-[(3-fluoro-4-methoxypyridin-2-yl)methyl]-1-({4-[(2-oxopyridin-1-yl)methyl]phenyl}methyl)pyrazole-4-carboxamide]"
101,17,> 40,162,> 40,> 80,0.0088,32,"COc1ccc(C#N)c(CNC(=O)c2cn(Cc3ccc(Cn4ccccc4=O)cc3)nc2N(C)C)c1F [Example 44, N-[(6-cyano-2-fluoro-3-methoxyphenyl)methyl]-3-(dimethylamino)-1-({4-[(2-oxopyridin-1-yl)methyl]phenyl}methyl)pyrazole-4-carboxamide]"
–,26,8.5,–,> 40,> 40,0.057,–,"COCc1nn(Cc2cnc(N3CCCC3)nc2)cc1C(=O)NCc1c(C#N)ccc(OC)c1F [Example 58, N-[(6-cyano-2-fluoro-3-methoxyphenyl)methyl]-3-(methoxymethyl)-1-{[2-(pyrrolidin-1-yl)pyrimidin-5-yl]methyl}pyrazole-4-carboxamide]"
17,1,4.6,17,> 4,> 4,0.0003,–,"Nc1nn(Cc2ccc(Cn3ccccc3=O)cc2)cc1C(=O)NCc1cc(Cl)ccc1-n1cnnn1 [Example 71, 3-amino-N-{[5-chloro-2-(1,2,3,4-tetrazol-1-yl)phenyl]methyl}-1-({4-[(2-oxopyridin-1-yl)methyl]phenyl}methyl)pyrazole-4-carboxamide]"
–,4,0.161,–,> 40,> 40,0.0008,–,"COCc1nn(Cc2ccc(N3CCC(F)(F)C3)nc2)cc1C(=O)NCc1c(-n2cnnn2)ccc(OC)c1F [Example 87, 1-{[6-(3,3-difluoropyrrolidin-1-yl)pyridin-3-yl]methyl}-N-{[2-fluoro-3-methoxy-6-(1,2,3,4-tetrazol-1-yl)phenyl]methyl}-3-(methoxymethyl)pyrazole-4-carboxamide]"
–,3,0.076,–,> 40,> 40,0.002,–,"COc1ccc(-n2cnnn2)c(CNC(=O)c2cnn(Cc3cnc(N4CCCC4)nc3)c2)c1F [Reference Example K, reference compound]"
